In patent US20040077674A1, “Mappicine analogs, intermediates in the synthesis of mappicine analogs and methods of synthesis of mappicine analogs” (priority 2002, published 2004):
Several values for one entry are separate records, joined by “and”; a condition that tells them apart may be missing. Equal values may be shown once. Read-outs that look alike come from different tables or passages of the source.

Tests used:
[1] = biological target: T1, RNA-dependent DNA polymerase activity of HIV reverse transcriptase (Human immunodeficiency virus type 1 group M subtype B, UniProt P03366); test: RNA-dependent DNA polymerase activity assay of HIV reverse transcriptase; assay type: biochemical, HIV-1; details: 10 μM inhibitor concentration, activity in presence / in absence of analog x 100; for remaining activity at 10 µM: read-out: Residual activity (%) Polymerase
T1 construct: made in house
How it was run: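 Single-concentration test of mappicine analogs at 10 μM final against the RNA-dependent DNA polymerase activity of HIV RT. Value is % residual activity: polymerase activity with analog divided by activity without analog, ×100.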

[2] = biological target: T2, RNase H activity of HIV reverse transcriptase (Human immunodeficiency virus type 1 group M subtype B, UniProt P03366); test: Fluorescence (FRET)-based RNase H assay of HIV reverse transcriptase; assay type: biochemical, HIV-1; details: for remaining activity at 10 µM / Residual activity (%) RNase H: 10 μM inhibitor concentration, activity in presence / in absence of analog x 100; for remaining activity at 10 µM: read-out: Residual activity (%) RNase H; for IC50: in vitro, read-out: IC50 (μM) against HIV RNase H in vitro
T2 construct: 2.5 nM of the p51/p66 RT heterodimer in the assay; made in house

[3] = system: HIV-1 replication; test: HIV-1 replication in cultured cells (cell culture viral growth assay); assay type: cell-based
[4] = system: HIV-1 replication; details: published RNase H inhibitors; cited from earlier work
[5] = system: cells; details: cited from earlier work
[6] = system: mutant HIV-1 strain with K103N+Y181C in the viral reverse transcriptase; test: Replication of NNRTI-resistant mutant HIV-1 strain K103N+Y181C in cultured cells; assay type: cell-based; details: K103N+Y181C mutant HIV-1; read-out: EC50 of inhibition of replication of resistant virus strain
[7] = system: mutant HIV-1 strain with V106A+Y181C in the viral reverse transcriptase; test: Replication of NNRTI-resistant mutant HIV-1 strain V106A+Y181C in cultured cells; assay type: cell-based; details: V106A+Y181C mutant HIV-1; read-out: EC50 of inhibition of replication of resistant virus strain
[8] = biological target: T2, RNase H activity of HIV reverse transcriptase; details: read-out: IC50 of RNase H inhibition; literature (Borkow et al. 1997); cited from earlier work
[9] = system: cells; details: cited from earlier work; remark: listed apart in the source
[10] = Human immunodeficiency virus 1, cell culture viral growth assays, read-out: EC50 (μM) against HIV-1 replication

**Q.** Which results are given for CCC(O)c1cc2n(c(=O)c1C)Cc1c-2nc2ccc(NC(=O)OC(C)(C)C)cc2c1[Si](C)(C)C (stereo not drawn) [5 (AG 2M), 2-tert-Butyloxycarbonylamino-7-(1-hydroxypropyl)-8-methyl-12-trimethylsilanyl-11H-indolizino [1,2-b]quinolin-9-one]?
**A.** remaining activity at 10 µM [1]: 80%; remaining activity at 10 µM [2]: 47%; IC50 [2]: < 10 µM and 8 µM; EC50 [3, 10]: ~5 µM

**Q.** Which results are given for CCc1c2c(nc3ccc(N)cc13)-c1cc(C(O)CC)c(C)c(=O)n1C2 (stereo not drawn) [5 (AG 6M), 2-Amino-12-ethyl-7-(1-hydroxypropyl)-8-methyl-1 1H-indolizinol[1,2-b]quinolin-9-one]?
**A.** remaining activity at 10 µM [1]: 76%; remaining activity at 10 µM [2]: 57%; IC50 [2]: < 10 µM and 10 µM; EC50 [3, 10]: ~5 µM

**Q.** For O=C(O)C(=O)CC(=O)c1ccc(NC(=O)c2ccccc2)s1 [BTOBA, 4-[5-(benzoylamino)thien-2-yl]-2,4-dioxobutanoic acid], which “antiviral activity against HIV-1 replication in cultured cells (in words)” value (“antiviral activity” below) [4] is on record?
**A.** cannot inhibit HIV-1 replication in cultured cells

**Q.** And the “ability to penetrate cells (in words)” value [5]?
**A.** Neither CPHM nor BTOBA are able to penetrate cells

**Q.** For O=C(O)C(=NNc1ccc(Cl)cc1)C(=O)O [CPHM, 2-[(4-chlorophenyl)-hydrazono]-malonic acid], which “antiviral activity” value [4] is on record?
**A.** cannot inhibit HIV-1 replication in cultured cells

**Q.** What about the “ability to penetrate cells (in words)” value [5] of the same compound?
**A.** Neither CPHM nor BTOBA are able to penetrate cells

**Q.** What does the source list for CCCc1c2c(nc3ccc(Cl)cc13)-c1cc(C(O)CCC3CCCCC3)c(C)c(=O)n1C2 (stereo not drawn) [Compound 7.5.6]?
**A.** % inhibition of RNase H at 20 μM ([2]; 20 μM inhibitor concentration): 100%; inhibitory activity against HIV-1 RNase H (in words) ([2]; dose-response curves FIG. 13, 10 μM or 20 μM screens): possess inhibitory activity against HIV-1 RNase H; EC50 ([3]; wild-type HIV-1 in cultured cells, read-out: EC50 of inhibition of replication of wild-type HIV-1): ~3 µM; EC50 [6]: 3.5 µM; EC50 [7]: 4.2 µM

**Q.** With CC(C)(C)c1ccc(C(=O)NN=Cc2c(O)ccc3ccccc23)cc1 [BBNH, N-4-(t-butylbenzoyl)-2-hydroxy-1-naphthaldehyde hydrazone] as the compound, how does the IC50 [2] read?
**A.** 1.8 µM

**Q.** What about the IC50 [8] of the same compound?
**A.** ~2 µM

**Q.** What about the “antiviral activity” value [4] of the same compound?
**A.** demonstrated antiviral activity against HIV-1 replication in cultured cells

**Q.** And the “toxicity to cells (in words)” value [9]?
**A.** highly toxic to cells

**Q.** With CCC(=O)c1cc2n(c(=O)c1C)Cc1c-2nc2ccc(F)cc2c1-c1ccccc1 [5 (3Bακ)] as the compound, how does the “Residual activity (%) Polymerase” value [1] read?
**A.** 100%

**Q.** What about the “Residual activity (%) RNase H” value [2] of the same compound?
**A.** 94%

**Q.** For CCC(O)c1cc2n(c(=O)c1C)Cc1c-2nc2ccccc2c1[Si](C)(C)C (stereo not drawn) [5 (AG 1M)], which “Residual activity (%) Polymerase” value ([1]; 10 µM) is on record?
**A.** 89%

**Q.** And the “Residual activity (%) RNase H” value ([2]; 10 µM)?
**A.** 73%

**Q.** Which results are given for Cc1c(C(O)C(C)(C)C)cc2n(c1=O)Cc1c-2nc2ccc(F)cc2c1-c1ccccc1 (stereo not drawn) [5 (3Bβ)]?
**A.** Residual activity (%) Polymerase [1]: 78%; Residual activity (%) RNase H [2]: 75%
